Reference: ChEMBL document CHEMBL4138236, “Trisubstituted barbiturates and thiobarbiturates: Synthesis and biological evaluation as xanthine oxidase inhibitors, antioxidants, antibacterial and anti-proliferative agents” (Eur J Med Chem, 2018)

Test system: Klebsiella pneumoniae
Test: Antibacterial activity against Klebsiella pneumoniae ATCC 13883 after 24 hrs by broth microdilution method
Assay type: functional
Conditions: ATCC 13883, 24 h

Compound | MIC [µM]
O=C(O)c1ccccc1NC=C1C(=O)N(c2ccccc2)C(=S)N(c2ccccc2)C1=O | > 200
Cn1c([O-])c(C(C#N)c2ccc(Br)cc2)c(=O)n(C)c1=O.[Na+] (configuration not stated) | > 200
CC(=O)C1C(=O)NC(=O)NC1=O | > 200
O=C1NC(=S)NC(=O)C1=CNc1cc([N+](=O)[O-])ccc1Cl | > 200
CN1C(=O)C(=CNC(N)=S)C(=O)N(C)C1=O | > 200
NC(=S)NC=C1C(=O)NC(=S)NC1=O | > 200
NC(=O)NC=C1C(=O)NC(=O)NC1=O | > 200

Test system: not listed separately
Test: Antioxidant activity assessed as DPPH radical scavenging activity at 30 uM after 20 mins by spectrophotometric method relative to control
Assay type: functional
Conditions: not given

Compound | Activity [%]
O=C(O)c1ccccc1NC=C1C(=O)N(c2ccccc2)C(=S)N(c2ccccc2)C1=O | -2.45
Cn1c([O-])c(C(C#N)c2ccc(Br)cc2)c(=O)n(C)c1=O.[Na+] (configuration not stated) | 0.45
CC(=O)C1C(=O)NC(=O)NC1=O | -6.91
O=C1NC(=S)NC(=O)C1=CNc1cc([N+](=O)[O-])ccc1Cl | -4.31
CN1C(=O)C(=CNC(N)=S)C(=O)N(C)C1=O | 20.3
NC(=S)NC=C1C(=O)NC(=S)NC1=O | 3.37
NC(=O)NC=C1C(=O)NC(=O)NC1=O | -5.19

Test system: Salmonella typhimurium
Test: Antibacterial activity against Salmonella typhimurium ATCC 13311 after 24 hrs by broth microdilution method
Assay type: functional, Salmonella enterica subsp. enterica serovar Typhimurium
Conditions: Salmonella enterica, ATCC 13311, 24 h

Compound | MIC [µM]
O=C(O)c1ccccc1NC=C1C(=O)N(c2ccccc2)C(=S)N(c2ccccc2)C1=O | > 200
Cn1c([O-])c(C(C#N)c2ccc(Br)cc2)c(=O)n(C)c1=O.[Na+] (configuration not stated) | > 200
CC(=O)C1C(=O)NC(=O)NC1=O | > 200
O=C1NC(=S)NC(=O)C1=CNc1cc([N+](=O)[O-])ccc1Cl | > 200
CN1C(=O)C(=CNC(N)=S)C(=O)N(C)C1=O | > 200
NC(=S)NC=C1C(=O)NC(=S)NC1=O | > 200
NC(=O)NC=C1C(=O)NC(=O)NC1=O | > 200

Test system: Staphylococcus aureus
Test: Antibacterial activity against Staphylococcus aureus ATCC 25923 after 24 hrs by broth microdilution method
Assay type: functional
Conditions: ATCC 25923, 24 h

Compound | MIC [µM]
O=C(O)c1ccccc1NC=C1C(=O)N(c2ccccc2)C(=S)N(c2ccccc2)C1=O | > 200
Cn1c([O-])c(C(C#N)c2ccc(Br)cc2)c(=O)n(C)c1=O.[Na+] (configuration not stated) | > 200
CC(=O)C1C(=O)NC(=O)NC1=O | > 200
O=C1NC(=S)NC(=O)C1=CNc1cc([N+](=O)[O-])ccc1Cl | > 200
CN1C(=O)C(=CNC(N)=S)C(=O)N(C)C1=O | > 200
NC(=S)NC=C1C(=O)NC(=S)NC1=O | > 200
NC(=O)NC=C1C(=O)NC(=O)NC1=O | > 200

Test system: Pseudomonas aeruginosa
Test: Antibacterial activity against Pseudomonas aeruginosa ATCC 27853 after 24 hrs by broth microdilution method
Assay type: functional
Conditions: ATCC 27853, 24 h

Compound | MIC [µM]
O=C(O)c1ccccc1NC=C1C(=O)N(c2ccccc2)C(=S)N(c2ccccc2)C1=O | > 200
Cn1c([O-])c(C(C#N)c2ccc(Br)cc2)c(=O)n(C)c1=O.[Na+] (configuration not stated) | > 200
CC(=O)C1C(=O)NC(=O)NC1=O | > 200
O=C1NC(=S)NC(=O)C1=CNc1cc([N+](=O)[O-])ccc1Cl | > 200
CN1C(=O)C(=CNC(N)=S)C(=O)N(C)C1=O | > 200
NC(=S)NC=C1C(=O)NC(=S)NC1=O | > 200
NC(=O)NC=C1C(=O)NC(=O)NC1=O | > 200

Test system: not listed separately
Test: Antioxidant activity assessed as DPPH radical scavenging activity at 30 uM after 60 mins by spectrophotometric method relative to control
Assay type: functional
Conditions: not given

Compound | Activity [%]
O=C(O)c1ccccc1NC=C1C(=O)N(c2ccccc2)C(=S)N(c2ccccc2)C1=O | -2.27
Cn1c([O-])c(C(C#N)c2ccc(Br)cc2)c(=O)n(C)c1=O.[Na+] (configuration not stated) | 1.2
CC(=O)C1C(=O)NC(=O)NC1=O | -7.28
O=C1NC(=S)NC(=O)C1=CNc1cc([N+](=O)[O-])ccc1Cl | -3.68
CN1C(=O)C(=CNC(N)=S)C(=O)N(C)C1=O | 31.9
NC(=S)NC=C1C(=O)NC(=S)NC1=O | 4.18
NC(=O)NC=C1C(=O)NC(=O)NC1=O | -5.32

Test system: Escherichia coli
Test: Antibacterial activity against Escherichia coli ATCC 25922 after 24 hrs by broth microdilution method
Assay type: functional
Conditions: ATCC 25922, 24 h

Compound | MIC [µM]
O=C(O)c1ccccc1NC=C1C(=O)N(c2ccccc2)C(=S)N(c2ccccc2)C1=O | > 200
Cn1c([O-])c(C(C#N)c2ccc(Br)cc2)c(=O)n(C)c1=O.[Na+] (configuration not stated) | > 200
CC(=O)C1C(=O)NC(=O)NC1=O | > 200
O=C1NC(=S)NC(=O)C1=CNc1cc([N+](=O)[O-])ccc1Cl | > 200
CN1C(=O)C(=CNC(N)=S)C(=O)N(C)C1=O | > 200
NC(=S)NC=C1C(=O)NC(=S)NC1=O | > 200
NC(=O)NC=C1C(=O)NC(=O)NC1=O | > 200

Test system: MCF7
Test: Antiproliferative activity against human MCF7 cells at 30 uM after 72 hrs by MTT assay relative to control
Assay type: functional
Conditions: not given

Compound | Activity [%]
O=C(O)c1ccccc1NC=C1C(=O)N(c2ccccc2)C(=S)N(c2ccccc2)C1=O | 43.11
Cn1c([O-])c(C(C#N)c2ccc(Br)cc2)c(=O)n(C)c1=O.[Na+] (configuration not stated) | 79.47
CC(=O)C1C(=O)NC(=O)NC1=O | 80.64
O=C1NC(=S)NC(=O)C1=CNc1cc([N+](=O)[O-])ccc1Cl | 63.7
CN1C(=O)C(=CNC(N)=S)C(=O)N(C)C1=O | 59.18
NC(=S)NC=C1C(=O)NC(=S)NC1=O | 111.15
NC(=O)NC=C1C(=O)NC(=O)NC1=O | 55.71

Test system: Bacillus cereus
Test: Antibacterial activity against Bacillus cereus ATCC 1178 after 24 hrs by broth microdilution method
Assay type: functional
Conditions: ATCC 1178, 24 h

Compound | MIC [µM]
O=C(O)c1ccccc1NC=C1C(=O)N(c2ccccc2)C(=S)N(c2ccccc2)C1=O | > 200
Cn1c([O-])c(C(C#N)c2ccc(Br)cc2)c(=O)n(C)c1=O.[Na+] (configuration not stated) | > 200
CC(=O)C1C(=O)NC(=O)NC1=O | > 200
O=C1NC(=S)NC(=O)C1=CNc1cc([N+](=O)[O-])ccc1Cl | > 200
CN1C(=O)C(=CNC(N)=S)C(=O)N(C)C1=O | > 200
NC(=S)NC=C1C(=O)NC(=S)NC1=O | > 200
NC(=O)NC=C1C(=O)NC(=O)NC1=O | > 200

Test system: Acinetobacter baumannii
Test: Antibacterial activity against Acinetobacter baumannii LMG 1025 after 24 hrs by broth microdilution method
Assay type: functional
Conditions: LMG 1025, 24 h

Compound | MIC [µM]
O=C(O)c1ccccc1NC=C1C(=O)N(c2ccccc2)C(=S)N(c2ccccc2)C1=O | > 200
Cn1c([O-])c(C(C#N)c2ccc(Br)cc2)c(=O)n(C)c1=O.[Na+] (configuration not stated) | > 200
CC(=O)C1C(=O)NC(=O)NC1=O | > 200
O=C1NC(=S)NC(=O)C1=CNc1cc([N+](=O)[O-])ccc1Cl | > 200
CN1C(=O)C(=CNC(N)=S)C(=O)N(C)C1=O | > 200
NC(=S)NC=C1C(=O)NC(=S)NC1=O | > 200
NC(=O)NC=C1C(=O)NC(=O)NC1=O | > 200

Test system: NHDF
Test: Antiproliferative activity against NHDF at 30 uM after 72 hrs by MTT assay relative to control
Assay type: cell-based
Conditions: human

Compound | Activity [%]
O=C(O)c1ccccc1NC=C1C(=O)N(c2ccccc2)C(=S)N(c2ccccc2)C1=O | 82.24
Cn1c([O-])c(C(C#N)c2ccc(Br)cc2)c(=O)n(C)c1=O.[Na+] (configuration not stated) | 80.09
CC(=O)C1C(=O)NC(=O)NC1=O | 124.84
O=C1NC(=S)NC(=O)C1=CNc1cc([N+](=O)[O-])ccc1Cl | 70.28
CN1C(=O)C(=CNC(N)=S)C(=O)N(C)C1=O | 84.63
NC(=S)NC=C1C(=O)NC(=S)NC1=O | 83.56
NC(=O)NC=C1C(=O)NC(=O)NC1=O | 78.89
